Source: patent publication US20240287078A1, “QUINAZOLINE DERIVATIVES USEFUL AS RAS INHIBITORS” (Redx Pharma PLC, priority 2021, published 2024)

How the values were obtained:
Format in all cases: biochemical
KRAS G12D = biological target: T1, KRAS G12D (Homo sapiens, UniProt P01116, G12D); test: HTRF nucleotide exchange assay (NEA), KRAS G12D; settings: recombinant human KRAS aa1-188 G12D, 2 nM, 60 min compound incubation, EDA-GTP-DY647P1; for inhibition at 10 µM: 1 h
T1 construct: aa1-188 KRAS WT, HRAS WT, NRAS WT, or KRAS containing the containing the G12D, G13D or Q61H amino acid substitutions
Method: (§1) HTRF Nucleotide Exchange Assay Method
(§2) The capacity of compounds to bind KRAS G12D, other KRAS mutants and wildtype RAS isoforms was quantified using a HTRF nucleotide exchange assay. Recombinant human RAS protein (2 nM; aa1-188 KRAS WT, HRAS WT, NRAS WT, or KRAS containing the containing the G12D, G13D or Q61H amino acid substitutions, or 4 nM KRAS; aa1-188 containing the G12V, G12C, G12A or G12S amino acid substitution, an N-terminal 6×His-tag and leader sequence), and 2 nM Europium-labeled anti-6×His antibody were mixed in assay buffer (10 mM HEPES pH7.3, 150 mM NaCl, 5 mM MgCl2, 0.05% BSA, 0.0025% NP-40 and 100 mM KF) with various concentrations of compound in a 384-well plate and a volume of 5 uL. After a 60-minute incubation at room temperature, Sul of 200 nM EDA-GTP-DY647P1 (diluted in assay buffer) was added to the plate. Following 30-minute incubation at room temperature, time-resolved fluorescence was measured on a PerkinElmer Envision plate reader. DMSO (0.3%) and unlabeled GDP (1 μM) or equivalent tool compound were used to generate the Max and Min assay signals, respectively. Data was analysed using a four-parameter logistic model to calculate IC50 values, with at least two independent replicates were performed for each compound.

KRAS G13D = biological target: T2, KRAS G13D (Homo sapiens, UniProt P01116, G13D); test: HTRF nucleotide exchange assay (NEA), KRAS G13D; settings: recombinant human KRAS aa1-188 G13D, 2 nM, 60 min compound incubation, EDA-GTP-DY647P1; for inhibition at 10 µM: 1 h
T2 construct: aa1-188 KRAS WT, HRAS WT, NRAS WT, or KRAS containing the containing the G12D, G13D or Q61H amino acid substitutions
Method: as §1
The capacity of compounds to bind KRAS G12D, other KRAS mutants and wildtype RAS isoforms was quantified using a HTRF nucleotide exchange assay. […] After a 60-minute incubation at room temperature, Sul of 200 nM EDA-GTP-DY647P1 (diluted in assay buffer) was added to the plate. Following 30-minute incubation at room temperature, time-resolved fluorescence was measured on a PerkinElmer Envision plate reader. DMSO (0.3%) and unlabeled GDP (1 μM) or equivalent tool compound were used to generate the Max and Min assay signals, respectively. Data was analysed using a four-parameter logistic model to calculate IC50 values, with at least two independent replicates were performed for each compound.

KRAS G12C = biological target: T3, KRAS G12C (Homo sapiens, UniProt P01116, G12C); test: HTRF nucleotide exchange assay (NEA), KRAS G12C; settings: recombinant human KRAS aa1-188 G12C, 4 nM; 60 min compound incubation, EDA-GTP-DY647P1
T3 construct: 4 nM KRAS; aa1-188 containing the G12V, G12C, G12A or G12S amino acid substitution
Method: as §1, §2

KRAS WT = biological target: T4, KRAS WT (Homo sapiens, UniProt P01116); test: HTRF nucleotide exchange assay (NEA), KRAS WT; settings: recombinant human KRAS WT aa1-188, 2 nM, 60 min compound incubation, EDA-GTP-DY647P1; for inhibition at 10 µM: 1 h
T4 construct: aa1-188 KRAS WT, HRAS WT, NRAS WT
Method: as §1, §2

KRAS G12S = biological target: T5, KRAS G12S (Homo sapiens, UniProt P01116, G12S); test: HTRF nucleotide exchange assay (NEA), KRAS G12S; settings: 1 h; recombinant human KRAS aa1-188 G12S, 4 nM; 60 min compound incubation, EDA-GTP-DY647P1
T5 construct: 4 nM KRAS; aa1-188 containing the G12V, G12C, G12A or G12S amino acid substitution
Method: as §1, §2

T1 sequence (P01116 1-188 isoform P01116-2 G12D): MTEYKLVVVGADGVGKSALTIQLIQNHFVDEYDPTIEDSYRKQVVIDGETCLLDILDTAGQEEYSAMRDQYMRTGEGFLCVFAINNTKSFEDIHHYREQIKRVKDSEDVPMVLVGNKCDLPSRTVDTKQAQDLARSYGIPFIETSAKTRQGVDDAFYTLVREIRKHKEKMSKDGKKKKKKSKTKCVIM
T2 sequence (P01116 1-188 isoform P01116-2 G13D): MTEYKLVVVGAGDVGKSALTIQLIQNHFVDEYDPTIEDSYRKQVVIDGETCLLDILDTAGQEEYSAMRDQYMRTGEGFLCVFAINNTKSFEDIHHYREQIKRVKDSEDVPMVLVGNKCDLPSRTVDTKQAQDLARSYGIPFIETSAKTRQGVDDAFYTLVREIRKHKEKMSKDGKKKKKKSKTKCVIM
T4 sequence (P01116 1-188 isoform P01116-2): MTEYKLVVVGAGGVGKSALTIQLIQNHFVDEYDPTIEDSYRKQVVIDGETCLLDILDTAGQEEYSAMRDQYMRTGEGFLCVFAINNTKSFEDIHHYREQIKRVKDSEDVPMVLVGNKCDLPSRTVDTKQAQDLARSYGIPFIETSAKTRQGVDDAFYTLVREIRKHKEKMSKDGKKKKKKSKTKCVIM
T5 sequence (P01116 1-188 isoform P01116-2 G12S): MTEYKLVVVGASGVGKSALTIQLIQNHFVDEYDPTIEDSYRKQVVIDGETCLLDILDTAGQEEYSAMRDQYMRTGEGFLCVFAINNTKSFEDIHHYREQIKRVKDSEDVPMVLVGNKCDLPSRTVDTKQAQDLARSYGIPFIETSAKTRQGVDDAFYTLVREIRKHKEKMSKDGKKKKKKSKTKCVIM
T3 sequence (P01116 1-188 isoform P01116-2 G12C): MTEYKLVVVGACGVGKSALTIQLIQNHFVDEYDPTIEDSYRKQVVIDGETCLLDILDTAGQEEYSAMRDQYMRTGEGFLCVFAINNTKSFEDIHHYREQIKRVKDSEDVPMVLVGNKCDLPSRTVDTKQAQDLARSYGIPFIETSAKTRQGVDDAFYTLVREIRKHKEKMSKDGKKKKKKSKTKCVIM

SMILES | inhibition at 10 µM (KRAS G12D) [%] | inhibition at 10 µM (KRAS WT) [%] | also measured
Cc1c(-c2cc(O)cc3ccccc23)ccc2c(N3CC4CCC(C3)N4)nc(OCC34CCCN3CCC4)nc12 [Example 1, 4-[4-(3,8-diazabicyclo[3.2.1]octan-3-yl)-2-(1,2,3,5,6,7-hexahydropyrrolizin-8-ylmethoxy)-8-methyl-quinazolin-7-yl]naphthalen-2-ol] |  |  | IC50 (KRAS G12D): < 10 nM; inhibition at 10 µM (KRAS G13D): 10 to 49%; IC50 (KRAS G12C): 100 to 10000 nM; IC50 (KRAS WT): 100 to 10000 nM
Cc1c(-c2cc(O)cc3ccccc23)ccc2c(N3CCSCC3)nc(OCC34CCCN3CCC4)nc12 [Example 3, 4-[2-(1,2,3,5,6,7-hexahydropyrrolizin-8-ylmethoxy)-8-methyl-4-thiomorpholino-quinazolin-7-yl]naphthalen-2-ol] |  |  | IC50 (KRAS G12D): 100 to 10000 nM; IC50 (KRAS G13D): 100 to 10000 nM; IC50 (KRAS G12C): 100 to 10000 nM; IC50 (KRAS WT): 100 to 10000 nM
Cc1c(-c2cc(O)cc3ccccc23)ccc2c(N3CCOCCC3=O)nc(OCC34CCCN3CCC4)nc12 [Example 4, 4-[2-(1,2,3,5,6,7-hexahydropyrrolizin-8-ylmethoxy)-7-(3-hydroxy-1-naphthyl)-8-methyl-quinazolin-4-yl]-1,4-oxazepan-5-one] | 10 to 49 | 10 to 49 | inhibition at 10 µM (KRAS G13D): 10 to 49%
Cc1c(-c2cc(O)cc3ccccc23)ccc2c(N3CCCOCC3=O)nc(OCC34CCCN3CCC4)nc12 [Example 5, 4-[2-(1,2,3,5,6,7-hexahydropyrrolizin-8-ylmethoxy)-7-(3-hydroxy-1-naphthyl)-8-methyl-quinazolin-4-yl]-1,4-oxazepan-3-one] | 10 to 49 | 10 to 49 | inhibition at 10 µM (KRAS G13D): 10 to 49%
Cc1c(-c2cc(O)cc3ccccc23)ccc2c(N3CCn4nccc4C3)nc(OCC34CCCN3CCC4)nc12 [Example 7] | 10 to 49 | 10 to 49 | inhibition at 10 µM (KRAS G12S): 10 to 49%
Cc1c(-c2cc(O)cc3ccccc23)ccc2c(N3CCn4cncc4C3)nc(OCC34CCCN3CCC4)nc12 [Example 8, 4-[4-(6,8-dihydro-5H-imidazo[1,5-a]pyrazin-7-yl)-2-(1,2,3,5,6,7-hexahydropyrrolizin-8-ylmethoxy)-8-methyl-quinazolin-7-yl]naphthalen-2-ol] | 10 to 49 | 10 to 49 | inhibition at 10 µM (KRAS G12S): 10 to 49%
Cc1c(-c2cc(O)cc3ccccc23)ccc2c(N3CCn4ccnc4C3)nc(OCC34CCCN3CCC4)nc12 [Example 9, 4-[4-(6,8-dihydro-5H-imidazo[1,2-a]pyrazin-7-yl)-2-(1,2,3,5,6,7-hexahydropyrrolizin-8-ylmethoxy)-8-methyl-quinazolin-7-yl]naphthalen-2-ol] | 10 to 49 | 10 to 49 | inhibition at 10 µM (KRAS G12S): 10 to 49%
Cc1c(-c2cc(O)cc3ccccc23)ccc2c(N3CCc4[nH]ncc4C3)nc(OCC34CCCN3CCC4)nc12 [Example 10, 4-[2-(1,2,3,5,6,7-hexahydropyrrolizin-8-ylmethoxy)-8-methyl-4-(1,4,6,7-tetrahydropyrazolo[4,3-c]pyridin-5-yl)quinazolin-7-yl]naphthalen-2-ol] | 10 to 49 | 10 to 49 | 
Cc1c(-c2cc(O)cc3ccccc23)ccc2c(N3CCc4cn[nH]c4C3)nc(OCC34CCCN3CCC4)nc12 [Example 11, 4-[2-(1,2,3,5,6,7-hexahydropyrrolizin-8-ylmethoxy)-8-methyl-4-(1,4,5,7-tetrahydropyrazolo[3,4-c]pyridin-6-yl)quinazolin-7-yl]naphthalen-2-ol] | 10 to 49 | 10 to 49 | 
Cc1c(-c2ncnc3ccc(C#N)cc23)ccc2c(N3CCCOCC3)nc(OCC34CCCN3CCC4)nc12 [Example 12, 4-[2-(1,2,3,5,6,7-hexahydropyrrolizin-8-ylmethoxy)-8-methyl-4-(1,4-oxazepan-4-yl)quinazolin-7-yl]quinazoline-6-carbonitrile] | 10 to 49 | 10 to 49 | 
Cc1c(-c2cccc3sc(N)nc23)ccc2c(N3CCCOCC3)nc(OCC34CCCN3CCC4)nc12 [Example 13, 4-[2-(1,2,3,5,6,7-hexahydropyrrolizin-8-ylmethoxy)-8-methyl-4-(1,4-oxazepan-4yl)quinazolin-7-yl]-1,3-benzothiazol-2-amine] |  |  | IC50 (KRAS G12D): 100 to 10000 nM; IC50 (KRAS WT): 100 to 10000 nM
Cc1nc(-c2ccc3c(N4CCCOCC4)nc(OCC45CCCN4CCC5)nc3c2C)c2ccccc2n1 [Example 14, 4-[2-(1,2,3,5,6,7-hexahydropyrrolizin-8-ylmethoxy)-8-methyl-7-(2-methylquinazolin-4-yl)quinazolin-4-yl]-1,4-oxazepane] | 10 to 49 | 10 to 49 | 
COc1ccc(C(F)(F)F)cc1-c1ccc2c(N3CCCOCC3)nc(OCC34CCCN3CCC4)nc2c1C [Example 15, 4-[2-(1,2,3,5,6,7-hexahydropyrrolizin-8-ylmethoxy)-7-[2-methoxy-5-(trifluoromethyl)phenyl]-8-methyl-quinazolin-4-yl]-1,4-oxazepane] | 10 to 49 | 10 to 49 | 
COc1ccc(Cl)cc1-c1ccc2c(N3CCCOCC3)nc(OCC34CCCN3CCC4)nc2c1C [Example 16, 4-[7-(5-chloro-2-methoxy-phenyl)-2-(1,2,3,5,6,7-hexahydropyrrolizin-8-ylmethoxy)-8-methyl-quinazolin-4-yl]-1,4-oxazepane] | 10 to 49 |  | IC50 (KRAS WT): 100 to 10000 nM
Cc1c(-c2c[nH]nc2C(F)(F)F)ccc2c(N3CCCOCC3)nc(OCC34CCCN3CCC4)nc12 [Example 17, 4-[2-(1,2,3,5,6,7-hexahydropyrrolizin-8-ylmethoxy)-8-methyl-7-[3-(trifluoromethyl)-1H-pyrazol-4-yl]quinazolin-4-yl]-1,4-oxazepane] | 10 to 49 | 10 to 49 | 
Cc1ccc2[nH]ncc2c1-c1ccc2c(N3CCCOCC3)nc(OCC34CCCN3CCC4)nc2c1C [Example 18, 4-[2-(1,2,3,5,6,7-hexahydropyrrolizin-8-ylmethoxy)-8-methyl-7-(5-methyl-1H-indazol-4-yl)quinazolin-4-yl]-1,4-oxazepane] | 10 to 49 | 10 to 49 | 
Cc1c(-c2cccc3[nH]ncc23)ccc2c(N3CCCOCC3)nc(OCC34CCCN3CCC4)nc12 [Example 19, 4-[2-(1,2,3,5,6,7-hexahydropyrrolizin-8-ylmethoxy)-7-(1H-indazol-4-yl)-8-methyl-quinazolin-4-yl]-1,4-oxazepane] | 10 to 49 | 10 to 49 | 
Cc1c(-c2n[nH]c3ccccc23)ccc2c(N3CCCOCC3)nc(OCC34CCCN3CCC4)nc12 [Example 20, 4-[2-(1,2,3,5,6,7-hexahydropyrrolizin-8-ylmethoxy)-7-(1H-indazol-3-yl)-8-methyl-quinazolin-4-yl]-1,4-oxazepane] | 10 to 49 | 10 to 49 | 
Cc1c(-c2cccc3cnn(C)c23)ccc2c(N3CCCOCC3)nc(OCC34CCCN3CCC4)nc12 [Example 21, 4-[2-(1,2,3,5,6,7-hexahydropyrrolizin-8-ylmethoxy)-8-methyl-7-(1-methylindazol-7-yl)quinazolin-4-yl]-1,4-oxazepane] | 10 to 49 | 10 to 49 | 
Cc1c(-c2nc(N)cc3ccccc23)ccc2c(N3CCCOCC3)nc(OCC34CCCN3CCC4)nc12 [Example 23, 1-[2-(1,2,3,5,6,7-hexahydropyrrolizin-8-ylmethoxy)-8-methyl-4-(1,4-oxazepan-4-yl)quinazolin-7-yl]isoquinolin-3-amine] | 10 to 49 | 10 to 49 | 
